Experiments:
[1] = molecular target: T1, Estrogen receptor (Homo sapiens) (UniProt P03372); test: Displacement of [3H]estradiol from human ERalpha relative to estradiol
T1 sequence (whole entry): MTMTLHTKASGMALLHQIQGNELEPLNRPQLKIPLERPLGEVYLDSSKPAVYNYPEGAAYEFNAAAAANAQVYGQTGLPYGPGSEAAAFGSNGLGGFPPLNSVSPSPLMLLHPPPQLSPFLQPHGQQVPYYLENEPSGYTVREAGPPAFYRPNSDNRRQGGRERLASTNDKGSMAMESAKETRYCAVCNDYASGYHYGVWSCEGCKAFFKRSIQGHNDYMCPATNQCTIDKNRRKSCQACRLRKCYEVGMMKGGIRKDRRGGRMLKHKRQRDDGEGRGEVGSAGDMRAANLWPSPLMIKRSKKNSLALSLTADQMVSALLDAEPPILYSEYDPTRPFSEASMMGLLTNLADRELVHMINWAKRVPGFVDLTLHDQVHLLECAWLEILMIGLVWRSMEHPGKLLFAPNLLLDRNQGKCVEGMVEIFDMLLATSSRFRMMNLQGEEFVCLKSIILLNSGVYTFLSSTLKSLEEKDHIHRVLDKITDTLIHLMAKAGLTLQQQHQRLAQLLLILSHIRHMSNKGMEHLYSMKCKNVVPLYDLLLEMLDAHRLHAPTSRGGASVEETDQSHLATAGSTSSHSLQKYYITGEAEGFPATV

[2] = molecular target: Estrogen receptor beta (Homo sapiens) (UniProt Q92731); test: Displacement of [3H]estradiol from human ERbeta relative to estradiol
Sequence of Estrogen receptor beta (Homo sapiens) (Q92731 whole entry): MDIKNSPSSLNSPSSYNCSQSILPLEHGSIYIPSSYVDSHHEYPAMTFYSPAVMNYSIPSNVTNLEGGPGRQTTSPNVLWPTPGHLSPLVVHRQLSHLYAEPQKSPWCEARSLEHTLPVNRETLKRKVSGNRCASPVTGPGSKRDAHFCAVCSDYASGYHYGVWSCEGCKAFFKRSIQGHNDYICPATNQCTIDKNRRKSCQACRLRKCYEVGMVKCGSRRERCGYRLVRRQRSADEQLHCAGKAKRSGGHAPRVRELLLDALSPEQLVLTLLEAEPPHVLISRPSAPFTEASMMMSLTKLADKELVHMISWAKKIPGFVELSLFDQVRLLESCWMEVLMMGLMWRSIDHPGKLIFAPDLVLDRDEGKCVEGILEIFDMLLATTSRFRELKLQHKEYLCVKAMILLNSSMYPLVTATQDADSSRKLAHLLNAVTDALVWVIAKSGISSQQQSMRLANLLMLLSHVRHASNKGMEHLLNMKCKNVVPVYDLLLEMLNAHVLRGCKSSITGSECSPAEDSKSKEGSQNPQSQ

[3] = molecular target: T2, Estrogen receptor (Homo sapiens) (UniProt Q92731+P03372); test: Ratio of RBA for human ERalpha to RBA for human ERbeta; format: protein assay
T2 sequence (Q92731 whole entry, looked up, one chain of several): as the sequence (Q92731 whole entry) above

Estrogen receptor = molecular target: T3, Estrogen receptor (Homo sapiens, UniProt P03372); test: Displacement of [3H]estradiol from human ERalpha
T3 sequence (P03372 whole entry): T1 sequence (whole entry)

[4] = molecular target: T2, Estrogen receptor (Homo sapiens); test: Ratio of Kd for human ERalpha to Kd for human ERbeta; format: protein assay
[5] = molecular target: T2, Estrogen receptor (Homo sapiens); test: Ratio of RBA for human ERbeta to RBA for human ERalpha; format: protein assay

| relative binding affinity (RBA) [1] | relative binding affinity (RBA) [2] | Selectivity ratio [3] | Kd (Estrogen receptor) [nM] | Selectivity ratio [4] | Selectivity ratio [5] | Structure (SMILES) |
| --- | --- | --- | --- | --- | --- | --- |
| 3.91 | 2.13 | 2 |  |  |  | CNc1c(/C=N/O)ccc(-c2cccc(C)c2)c1-c1cccc(C)c1 |
| 0.14 | 0.05 |  |  |  |  | CNc1c(/C=N/O)ccc(-c2cccc(O)c2)c1-c1cccc(O)c1 |
| 5.38 | 1.11 |  | 3.7 |  |  | CNc1c(/C=N/O)ccc(-c2ccc(O)cc2)c1-c1ccccc1 |
| 1.17 | 0.72 |  |  |  |  | CNc1c(/C=N/O)ccc(-c2ccccc2)c1-c1ccc(O)cc1 |
| 1.96 | 0.14 |  |  | 36 |  | CNc1c(/C=N/O)ccc(-c2ccc(O)cc2)c1-c1ccc(O)cc1 |
| 0.65 | 0.14 |  |  |  |  | CNc1c(/C=N/O)ccc(-c2cccc(OC)c2)c1-c1cccc(OC)c1 |
| 0.95 | 1.86 |  |  |  | 2 | CNc1c(/C=N/O)ccc(-c2ccc(C)cc2)c1-c1ccc(C)cc1 |
| 2.33 | 0.47 |  |  |  |  | CNc1c(/C=N/O)ccc(-c2ccc(OC)cc2)c1-c1ccc(OC)cc1 |

Source: ChEMBL document CHEMBL1145331, “Synthesis of anthranylaldoxime derivatives as estrogen receptor ligands and computational prediction of binding modes” (J Med Chem, 2006)
